Data: patent publication US20070219234A1, “Thienopyridine Derivatives” (priority 2004, published 2007)

Legend:
ST2 cells = assay: Osteoblast differentiation test (alkaline phosphatase activity); assay type: cell-based; conditions: Mus musculus, ST-2, 96 h; at 0.03 μg/mL; culturing for four days; control group (0.1% DMSO) = 100%; read-out: alkaline phosphatase activity increase rate
Description: ST2 cells (available from Institute of Physical and Chemical Research) which are stroma cells derived from mouse marrow were used. In this test, α-MEM medium (available from GIBCO BRL Cat. No. 10370-021) with which 10% (v/v) inactivated fetal bovine serum (available from Hyclone Company, FBS) and 1% (v/v) Penicillin-Streptomycin, Liquid (available from GIBCO BRL Cat. No. 15140-122) are mixed (hereinbelow abbreviated as 10% -FBS-αMEM) was used. Every culture in this test was conducted in a CO2 incubator (37° C., 95% humidity, 5% CO2).
The cells mentioned above were harvested with 2 mL of 0.25% trypsin solution (available from GIBCO BRL Cat. No. 15050-065) and after they were dispersed by adding 10 mL of 10% -FBS-αMEM, the cells were collected by centrifugal separation (25° C., 800 rpm, 5 minutes). A cell suspension containing 40,000 cells/mL was prepared from the collected cells using 10% -FBS-αMEM.
The cell suspension was dispensed to the wells of a 96 well microplate (Falcon company) in an amount of 100 μL per well so as to achieve 4,000 cells/well and cultured for 24 hours. Compounds were dispensed to the wells in final concentrations of 0.01, 0.03, 0.1, 0.3 μg/ml except the following control group. DMSO was dispensed to the wells of the control group in a final concentration of 0.1% (v/v). Alkaline phosphatase (ALP) activity was measured for each group after culturing for four days.
The measurement of ALP activity was performed as follows. That is, after the whole medium was removed from each well of the culturing plate, each well was washed twice by dispensing and removing 100 μL of Dulbecco's phosphate buffer (available from GIBCO BRL Cat. No. 14190-144). Cell lysing solution containing 10 mM MgCl2 and 2%(v/v) TritonX-100 (Sigma company) was prepared and 50 μL/well of the cell lysing solution was dispensed and the mixture was stirred at room temperature for five minutes. An ALP substrate solution containing 50 mM of diethanolamine (Wako Pure Chemical Industries, Ltd. Cat. No. 099-03112) and 20 mM of […] (Wako Pure Chemical Industries, Ltd. Cat. No. 147-02343) was prepared and 50 μL/well of the ALP substrate solution was dispensed and after allowing to stand at room temperature for 10 minutes, absorbance was measured using a microplate reader (Bio-rad company). Alkaline phosphatase activity increase rate (%) in the group blended with test compounds was calculated assuming the observed value of the control group of each plate to be 100% and evaluated as the osteoblast differentiation promoting activity.

[1] = test system: cells from femurs and tibias of ICR mice; assay: Osteoclast formation suppression test (TRAP activity); assay type: cell-based, mouse; conditions: 20 nM active form vitamin D3; compounds 0.01-0.3 μg/ml; culturing for five days
Description: 18 day-old ICR mice were purchased from Japan SLC, Inc. and used in the following experiments. The mice were sacrificed by cervical dislocation and the right and left femurs and tibias were extracted. After the tissue around the extracted femurs and tibias was removed, they were finely minced with scissors. 10 mL of 15%-FBS-αMEM was added to the minced femurs and tibias and the supernatant was collected after agitation for one minute and filtering with a cell strainer (Becton Dickinson company). A cell suspension containing 500,000 cells/mL was prepared with 15%-FBS-αMEM. The cell suspension was dispensed to the wells of a 96 well microplate (Falcon company) in an amount of 100 μL per well so as to achieve 50,000 cells/well and cultured for 24 hours. Active form vitamin D3 (Sigma company, Cat.No.D1530) was dispensed to the wells in final concentrations of 20 nM. Compounds were dispensed to the wells in final concentrations of 0.01, 0.03, 0.1, 0.3 μg/ml except the following control group. DMSO was dispensed to the wells of the control group in a final concentration of 0.1% (v/v). Tartrate-resistant acid phosphatase (TRAP) activity was measured for each group after culturing for five days.
The measurement of TRAP activity was performed as follows. That is, after the whole medium was removed from each well of the culturing plate, each well was washed twice by dispensing and removing 100 μL of Dulbecco's phosphate buffer (available from GIBCO BRL Cat. No. 14190-144). After retaining with a mixture of acetone-ethanol (1:1) for one minute, the retention liquid was removed and the wells were stained at 37° C. with Leukocyte acid phosphatase kit (Sigma company, Cat. No. 387-A) for 30 minutes. The staining solution was removed, then 100 μL of 10% sodium dodecylsulfate (Wako Pure Chemical Industries, Ltd. Cat. No. 191-07145) was dispensed and the mixture was stirred for five minutes, and then absorbance was measured using a microplate reader (Bio-rad company). TRAP activity decrease rate (%) in the group blended with test compounds was calculated assuming the observed value of the control group of each plate to be 100% and evaluated as the osteoclast formation suppression activity.

female F344 rats [2] = assay: Effect on fracture healing; assay type: in vivo, rat; conditions: orally once per day, six days a week, 39 days
Description: 12 week-old female F344 rats were purchased from Charles River Laboratories and used in the following experiment. An operation for fracturing bone was performed following a method of Li et al. (J. Bone Miner. Res 1999, 14: 969-979) under ketamine xylazine anesthesia. From the next day of the operation, 0.5% carboxymethyl cellulose sodium salt solution (Wako Pure Chemical Industries, Ltd. Cat. No. 039-01335) in which a test compound was suspended was orally administered once per day and six days a week. 39 days after the administration started, the animals were painlessly killed by removing the whole blood from the aorta abdominalis under ketamine xylazine anesthesia and the femurs were extracted.
After soft tissue was removed from the extracted femurs, they were measured by bone strength measuring apparatus MZ-500D (Maruto Instrument Co., Ltd.). 3-point bending tests were performed and determined by maximum load.

female F344 rats [3] = assay: Effect on bone mineral density (ovariectomy); assay type: in vivo, rat; conditions: 10 mg/kg, orally once per day, six days a week, six weeks
Description: 8 week-old female F344 rats were purchased from Charles River Laboratories and used in the following experiment. After ketamine (12.5 mg/ml)/xylazine (2.5 mg/ml) liquid mixture was intraperitoneally injected in an amount of 0.25 ml/100 g for anesthesia, ovariectomy or a sham operation was performed. From the next day of the operation, 0.5% carboxymethyl cellulose sodium salt solution (Wako Pure Chemical Industries, Ltd. Cat. No.039-01335) in which a test compound was suspended was orally administered once per day and six days a week. Six weeks after the administration started, the animals were painlessly killed by removing the whole blood from the aorta abdominalis under ketamine xylazine anesthesia and the right and left femurs were extracted.
After soft tissue was removed from the extracted femurs, the bone density was measured by DXA device DCS-600R (Aloka Co., Ltd.). The bone density was determined for the whole femur as well as three evenly divided parts, i.e., proximal, midshaft and distal end.

NC(=O)c1sc2nccc(N3CCCN(c4ccccn4)CC3)c2c1N [Example 99, 3-amino-4-(4-pyridin-2-yl-1,4-diazepan-1-yl)thieno[2,3-b]pyridine-2-carboxamide]
melting point: 237 to 239 °C
activity at 0.03 µg/mL (ST2 cells): > 150%
osteoclast formation suppression effect (TRAP activity decrease rate) [1]: excellent osteoclast formation suppression effect

COCC1CCCN(c2ccnc3sc(C(N)=O)c(N)c23)C1 (stereo not shown) [Example 101, 3-amino-4-[3-(methoxymethyl)piperidin-1-yl]thieno[2,3-b]pyridine-2-carboxamide]
melting point: 229 to 230 °C
activity at 0.03 µg/mL (ST2 cells): > 150%
osteoclast formation suppression effect (TRAP activity decrease rate) [1]: excellent osteoclast formation suppression effect

NC(=O)c1sc2nccc(N3CCCN(c4ccccc4)CC3)c2c1N [Example 57, 3-amino-4-(4-phenyl-1,4-diazepan-1-yl)thieno[2,3-b]pyridine-2-carboxamide]
fracture healing (3-point bending test, maximum load) (female F344 rats [2]): significantly improved fracture healing
activity at 0.03 µg/mL (ST2 cells): > 150%
bone density of femur (DXA) (female F344 rats [3]): significantly increased the bone density
osteoclast formation suppression effect (TRAP activity decrease rate) [1]: excellent osteoclast formation suppression effect

Cc1ccc(N2CCCN(c3ccnc4sc(C(N)=O)c(N)c34)CC2)nc1 [Example 106, 3-amino-4-[4-(5-methylpyridin-2-yl)-1,4-diazepan-1-yl]thieno[2,3-b]pyridine-2-carboxamide]
melting point: 205 to 208 °C
activity at 0.03 µg/mL (ST2 cells): > 150%
osteoclast formation suppression effect (TRAP activity decrease rate) [1]: excellent osteoclast formation suppression effect
